Measurements reported in ChEMBL document CHEMBL1201862, “PubChem BioAssay data set” (2004).
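1) Cells in 96-well plates. 2) Compound, 48 h, 5 concentrations. 3) Linear interpolation between surrounding doses. 4) Unreached endpoint = highest concentration. The concentration for 50% growth inhibition is given as GI50.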 Active and inactive are the calls of the source. Rule as the data show it: active = GI50 up to about 1.1 µM and inactive = higher.

Legend:
Test in all cases: NCI anticancer screen, dose series, 48 h
[1] = tested on: HCC 2998
[2] = tested on: SK-MEL-5
[3] = tested on: BT-549
[4] = tested on: SNB-19
[5] = tested on: SN12C
[6] = tested on: LOX IMVI
[7] = tested on: COLO 205
[8] = tested on: SW-620
[9] = tested on: HOP-92
[10] = tested on: OVCAR-3
[11] = tested on: DU-145
[12] = tested on: SR
[13] = tested on: NCI/ADR-RES
[14] = tested on: MDA-N
[15] = tested on: A498
[16] = tested on: HL-60
[17] = tested on: SF-539
[18] = tested on: SNB-75
[19] = tested on: NCI-H23
[20] = tested on: UO-31

| Compound | GI50 [1] | GI50 [2] | GI50 [3] | GI50 [4] | GI50 [5] | GI50 [6] | GI50 [7] | GI50 [8] | GI50 [9] | GI50 [10] | GI50 [11] | GI50 [12] | GI50 [13] | GI50 [14] | GI50 [15] | GI50 [16] | GI50 [17] | GI50 [18] | GI50 [19] | GI50 [20] |
| --- | --- | --- | --- | --- | --- | --- | --- | --- | --- | --- | --- | --- | --- | --- | --- | --- | --- | --- | --- | --- |
| CCOP(=O)(Nc1ccc2oc(=O)c3ccccc3c2c1)OCC | 88.5 µM (inactive) | 28.6 µM (inactive) | 15.2 µM (inactive) | 84.1 µM (inactive) | > 100 µM (inactive) | 47.5 µM (inactive) | > 100 µM (inactive) | > 100 µM (inactive) | 24.6 µM (inactive) | 45.2 µM (inactive) | 92.7 µM (inactive) | 31.7 µM (inactive) | 71.1 µM (inactive) | 97.5 µM (inactive) | 27.5 µM (inactive) | 19.4 µM (inactive) | > 100 µM (inactive) | 66.2 µM (inactive) | > 100 µM (inactive) | – |
| COc1cc(C2c3cc4c(cc3OC(Nc3ccc(C(=O)O)cc3)C2C)OCO4)cc(OC)c1OC (stereo unspecified) | 0.295 µM (active) | 0.0735 µM (active) | 0.467 µM (active) | 0.472 µM (active) | 0.991 µM (active) | 0.532 µM (active) | 0.202 µM (active) | 0.35 µM (active) | 4.13 µM (inactive) | 0.285 µM (active) | 0.378 µM (active) | 0.204 µM (active) | 0.29 µM (active) | 0.0557 µM (active) | 0.714 µM (active) | 0.186 µM (active) | 0.218 µM (active) | 0.295 µM (active) | 0.454 µM (active) | 0.426 µM (active) |
| OC1CSc2nc3ccccc3n2C1 (stereo unspecified) | > 100 µM (inactive) | > 100 µM (inactive) | > 100 µM (inactive) | > 100 µM (inactive) | > 100 µM (inactive) | > 100 µM (inactive) | > 100 µM (inactive) | > 100 µM (inactive) | > 100 µM (inactive) | > 100 µM (inactive) | > 100 µM (inactive) | > 100 µM (inactive) | > 100 µM (inactive) | > 100 µM (inactive) | > 100 µM (inactive) | > 100 µM (inactive) | > 100 µM (inactive) | 17.9 µM (inactive) | > 100 µM (inactive) | > 100 µM (inactive) |
| CSC(=N/N=C(\C)c1ccc(S(=O)(=O)N(C)c2ccccc2)cc1)SC | > 100 µM (inactive) | > 100 µM (inactive) | > 50.8 µM (inactive) | > 66.2 µM (inactive) | > 66.2 µM (inactive) | > 69.7 µM (inactive) | > 67.1 µM (inactive) | > 66.4 µM (inactive) | > 43.8 µM (inactive) | > 63.4 µM (inactive) | > 66.4 µM (inactive) | > 59.6 µM (inactive) | > 100 µM (inactive) | > 66.2 µM (inactive) | > 63.8 µM (inactive) | > 43.5 µM (inactive) | > 52.4 µM (inactive) | > 63.1 µM (inactive) | > 63.1 µM (inactive) | > 61.5 µM (inactive) |
| O=C1Nc2ccccc2/C1=N/N1C(=O)/C(=C/c2ccccc2S)N=C1c1ccccc1 | > 100 µM (inactive) | 81.8 µM (inactive) | 91 µM (inactive) | > 100 µM (inactive) | > 100 µM (inactive) | 44.9 µM (inactive) | 76 µM (inactive) | 71.1 µM (inactive) | 77.6 µM (inactive) | 33.4 µM (inactive) | > 100 µM (inactive) | 21.3 µM (inactive) | > 100 µM (inactive) | 82.4 µM (inactive) | > 100 µM (inactive) | 40.9 µM (inactive) | > 100 µM (inactive) | > 100 µM (inactive) | 57.7 µM (inactive) | 61.4 µM (inactive) |
| CC(C)NC(=O)OCc1c(COC(=O)NC(C)C)n(C)c2c1ccc1ccccc12 | 2.88 µM (inactive) | 2.34 µM (inactive) | 0.398 µM (active) | 1.74 µM (inactive) | 2.02 µM (inactive) | 1.16 µM (inactive) | 1.84 µM (inactive) | 1.37 µM (inactive) | 1.16 µM (inactive) | 2.97 µM (inactive) | 3.1 µM (inactive) | 0.57 µM (active) | 2.29 µM (inactive) | 1.74 µM (inactive) | 1.57 µM (inactive) | 2.86 µM (inactive) | 1.68 µM (inactive) | 1.83 µM (inactive) | 1.54 µM (inactive) | 1.9 µM (inactive) |
| CC1(C)Cc2ccccc2C(C)(Cl)C(=O)N1 (stereo unspecified) | > 10 µM (inactive) | – | > 10 µM (inactive) | > 10 µM (inactive) | > 10 µM (inactive) | – | > 10 µM (inactive) | > 10 µM (inactive) | > 10 µM (inactive) | > 10 µM (inactive) | > 10 µM (inactive) | > 10 µM (inactive) | > 10 µM (inactive) | > 10 µM (inactive) | > 10 µM (inactive) | > 10 µM (inactive) | > 10 µM (inactive) | – | > 10 µM (inactive) | > 10 µM (inactive) |
